According to article PMC11696576, “Next generation thiazolyl ketone inhibitors of cytosolic phospholipase A2 α for targeted cancer therapy” (Nature Communications, 2025):
Values joined by “and” are separate entries in the source; they are usually repeats but may differ in a detail not shown here. Equal entries are not always repeated.

Tested on: SW982 synoviocytes
Assay: cellular arachidonic acid (AA) release assay, IL-1β stimulated
Type: cell-based, human
Conditions: 0.2 µM, individual biological replicate
Source text: To test the inhibitory activity of the compounds in cells, we measured their effect on the release of AA from synoviocytes stimulated with IL-1β (Table 2). […] Combined with favorable selectivity and stability it was thus chosen for further evaluation. We looked specifically at how it modulated eicosanoid levels in response to stimulation both in whole blood and in isolated peripheral blood mononuclear cells (PBMCs) and checked for off-target effects on AA metabolism in whole blood by also measuring the effect of GK420 on eicosanoid release in the presence of exogenous free AA.
The human synovial sarcoma cell line SW982 (ATCC, London, UK) was used to measure AA release. The cells were maintained in Dulbecco’s Modified Eagle Medium (DMEM) supplemented with 10% FBS, 0.1 mg/mL gentamicin, and 0.3 mg/mL L-glutamine at 37 °C with 10% CO2, and experiments were performed at 3 days post-confluence. To measure AA release, the cells were labeled overnight with ^3H-AA (0.4 μCi/mL) in serum-free DMEM and then washed twice with PBS containing fBSA (2 mg/mL) to remove unincorporated radioactivity. The inhibitors, or DMSO vehicle control, were subsequently added to the cells for 1 hour prior to stimulation with 10 ng/mL IL-1β for 4 h. Supernatants were collected and centrifuged at 300 × g for 5 min to clear them of detached cells and adherent cells were dissolved in 1 N NaOH. The ^3H-AA was assessed by liquid scintillation counting (LS 6500 Multi-Purpose Scintillation Counter, Beckman Coulter, Inc., USA) and the results are given as the inhibition of released ^3H-AA in the supernatants relative to total ^3H-AA incorporated into the cells, as described. EC50 values were calculated by fitting the % inhibition data to a three-parameter dose-response curve in GraphPad prism v10.4.0. Experiments were performed in technical triplicates and repeated at least three times.

Structure (SMILES)	% inhibition of stimulated AA release
CCCCCCOc1ccc(SCC(=O)c2nc(C(=O)OC)cs2)cc1 [GK419]	23.74% and 36.06% and 29.89% and 8.79%
CCCCCCCOc1ccc(OCC(=O)c2nc(C(=O)OC)cs2)cc1 [GK420]	55.97% and 44.95% and 68.85% and 89.01%

Same assay, conditions: 1 µM, individual biological replicate

Structure (SMILES)	% inhibition of stimulated AA release
CCCCCCOc1ccc(SCC(=O)c2nc(C(=O)OC)cs2)cc1 [GK419]	51.4% and 93.19% and 85.38% and 54.33%
CCCCCCCOc1ccc(OCC(=O)c2nc(C(=O)OC)cs2)cc1 [GK420]	102.49% and 78.04% and 96.65% and 110.97%

Same assay, conditions: 5 µM, individual biological replicate

Structure (SMILES)	% inhibition of stimulated AA release
CCCCCCOc1ccc(SCC(=O)c2nc(C(=O)OC)cs2)cc1 [GK419]	98.65% and 99.61% and 98.35% and 63.6%
CCCCCCCOc1ccc(OCC(=O)c2nc(C(=O)OC)cs2)cc1 [GK420]	103.28% and 116.15% and 112.68%

Same assay, conditions: Homo sapiens, SW982, 5 µM, individual biological replicate

Structure (SMILES)	inhibition at 5 µM [%]
CCCCCCCOc1ccc(OCC(=O)c2nc(C(=O)OC)cs2)cc1 [GK420]	119

Same assay, conditions: Homo sapiens, SW982, 4 h, 1 µM inhibitor, IL-1β 4 h, mean ± stdev; read-out: AA release % Inhib

Structure (SMILES)	inhibition at 1 µM [%]
CCCCCCOc1ccc(SCC(=O)c2nc(C(=O)OC)cs2)cc1 [GK419]	71 ± 21
CCCCCCCOc1ccc(OCC(=O)c2nc(C(=O)OC)cs2)cc1 [GK420]	97 ± 14

Same assay, conditions: Homo sapiens, SW982; IL-1β 4 h; 0.2, 1 or 5 µM inhibitor; read-out: AA release EC50 µM (95% CI)

Structure (SMILES)	EC50 [µM]
CCCCCCOc1ccc(SCC(=O)c2nc(C(=O)OC)cs2)cc1 [GK419]	0.5
CCCCCCCOc1ccc(OCC(=O)c2nc(C(=O)OC)cs2)cc1 [GK420]	0.09

Same assay, conditions: Homo sapiens, SW982; [Agonist] vs. Response (three parameters); concentration in µM; read-out: logEC50 best-fit value, AA release (converted)

Structure (SMILES)	IC50 [µM]
CCCCCCOc1ccc(SCC(=O)c2nc(C(=O)OC)cs2)cc1 [GK419]	0.495
CCCCCCCOc1ccc(OCC(=O)c2nc(C(=O)OC)cs2)cc1 [GK420]	0.0942

Same assay, conditions: Homo sapiens, SW982; [Agonist] vs. Response (three parameters); read-out: EC50 best-fit value, AA release

Structure (SMILES)	EC50 [µM]
CCCCCCOc1ccc(SCC(=O)c2nc(C(=O)OC)cs2)cc1 [GK419]	0.495
CCCCCCCOc1ccc(OCC(=O)c2nc(C(=O)OC)cs2)cc1 [GK420]	0.0943

Tested on: not listed separately
Assay: stability in human plasma (LC-MS/MS)
Type: in vitro ADME
Conditions: % of the compound remaining after 4 h
Description: The stability of the analogs in human plasma was studied over approximately 24 h by LC-MS/MS and the results at 4 h and the final timepoint (20–25 h) are included in Table 1.
The metabolic stability of the compounds was determined through in vitro stability assays in human plasma. Solutions of compounds in DMSO (20 mM) were diluted to 5 μg/mL in 50% methanol for infusion into the MS/MS system and spiking of calibration standards and control samples. For the MS detection, positive ionization in ESI mode was used. Good sensitivity, retention and peak shaped were achieved using a gradient with 5 mM ammonium carbamate in water and ammonium carbamate in 90% acetonitrile on a reversed phase column (ACE3AQ). Calibration standards were spiked in a calibration range of 0.5–100 ng/ml. Control samples were spiked at, low, medium, and high concentration levels. The spiked plasma samples were prepared by protein precipitation using acetonitrile containing appropriate internal standard (IS). […] Samples were prepared for analysis by taking 50 μL of plasma sample and adding 100 μL of IS working solution in acetonitrile followed by vortexing at 2500 rpm (Multi-tube vortexer DVX-2500, Henry Troemner LLC, USA) for 2 min. The samples were centrifuged at 5300 rpm (Heraeus Megafuge 1.0 Heraeus, Germany) for 3 min and the supernatant transferred to the autosampler. Recovery was determined by comparing the prepared matrix samples (protein precipitation) with a direct sample (analytes spikes in 67% acetonitrile = injection solution) such that the recovery of the sample preparation and the matrix effects were determined together. Two or three samples were each measured in technical triplicates to give the final % recovery.

Structure (SMILES)	Stability in human plasma 4 h [%]
CCCCCCOc1ccc(SCC(=O)c2nc(C(=O)OC)cs2)cc1 [GK419]	82
CCCCCCCOc1ccc(OCC(=O)c2nc(C(=O)OC)cs2)cc1 [GK420]	63.3

Same assay, conditions: % of the compound remaining after 20 h

Structure (SMILES)	Stability in human plasma 20+ h [%]
CCCCCCOc1ccc(SCC(=O)c2nc(C(=O)OC)cs2)cc1 [GK419]	52.7
CCCCCCCOc1ccc(OCC(=O)c2nc(C(=O)OC)cs2)cc1 [GK420]	18.05

Same assay, conditions: individual sample, human plasma

Structure (SMILES)	plasma stability 4h (%)	plasma stability 20h (%)
CCCCCCOc1ccc(SCC(=O)c2nc(C(=O)OC)cs2)cc1 [GK419]	82.6% and 81.4%	53.1% and 52.3%
CCCCCCCOc1ccc(OCC(=O)c2nc(C(=O)OC)cs2)cc1 [GK420]	64.7% and 61.9%	19.1% and 17%

Target: T1, recombinant human cPLA2α (Homo sapiens, UniProt P47712)
T1 sequence (P47712 1-749): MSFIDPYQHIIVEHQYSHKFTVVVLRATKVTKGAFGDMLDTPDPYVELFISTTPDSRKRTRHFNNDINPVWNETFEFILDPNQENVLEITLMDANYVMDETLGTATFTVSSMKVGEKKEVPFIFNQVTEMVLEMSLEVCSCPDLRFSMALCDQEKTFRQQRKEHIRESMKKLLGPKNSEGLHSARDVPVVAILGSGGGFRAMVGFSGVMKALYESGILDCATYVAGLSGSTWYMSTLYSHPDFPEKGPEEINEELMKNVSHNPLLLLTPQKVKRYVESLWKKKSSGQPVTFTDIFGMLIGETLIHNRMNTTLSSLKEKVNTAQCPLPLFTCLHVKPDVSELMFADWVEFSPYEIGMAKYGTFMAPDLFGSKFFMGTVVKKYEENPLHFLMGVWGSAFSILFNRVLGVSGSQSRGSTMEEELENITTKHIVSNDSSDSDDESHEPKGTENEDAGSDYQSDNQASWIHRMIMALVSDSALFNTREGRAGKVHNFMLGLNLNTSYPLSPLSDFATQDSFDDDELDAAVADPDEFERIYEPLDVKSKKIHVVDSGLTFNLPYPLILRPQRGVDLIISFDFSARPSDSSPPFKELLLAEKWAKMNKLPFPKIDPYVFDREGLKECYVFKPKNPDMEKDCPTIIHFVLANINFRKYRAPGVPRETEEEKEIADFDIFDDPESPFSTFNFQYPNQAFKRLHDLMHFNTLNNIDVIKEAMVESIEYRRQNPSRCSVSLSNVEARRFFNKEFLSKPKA
Assay: radioactivity-based mixed micelle assay, cPLA2α
Type: biochemical
Conditions: 0.091 mole fraction; read-out: cPLA2α % Inhib
Description: All synthesized thiazolyl ketones were tested for their in vitro inhibitory activity on recombinant human cPLA2α and selectivity over human calcium-independent GVIA iPLA2 and secreted GV sPLA2 using our previously described group-specific radioactivity-based mixed micelle assays. The inhibition results are presented either as per cent inhibition or as XI(50) values in Table 1. […] The XI(50) is defined as the mole fraction of the inhibitor in the total substrate interface required to inhibit the enzyme activity by 50%. For comparison purposes, previously published data for the inhibitor GK470[19] are included. […] Inhibitors were initially screened at 0.091 mol fraction (5 μL of 5 mM inhibitor in DMSO) in substrate (495 μL) in technical triplicates. […] The XI(50) value and stdev values reported are for the entire curve. This analysis was performed in GraphPad Prism v6.

Structure (SMILES)	inhibition at 0.091 mole fraction [%]
CCCCCCOc1ccc(SCC(=O)c2nc(C(=O)OC)cs2)cc1 [GK419]	50
CCCCCCCOc1ccc(OCC(=O)c2nc(C(=O)OC)cs2)cc1 [GK420]	98

Same assay, conditions: XI(50) ± stdev; mole fraction of inhibitor in total substrate interface for 50% inhibition

Structure (SMILES)	cPLA2α XI(50)
CCCCCCCOc1ccc(OCC(=O)c2nc(C(=O)OC)cs2)cc1 [GK420]	0.0016 mole fraction and 0.0016 ± 0.0002 mole fraction

Same assay, conditions: cPLA2α XI(50) relative to GK470

Structure (SMILES)	times more potent than GK470
CCCCCCCOc1ccc(OCC(=O)c2nc(C(=O)OC)cs2)cc1 [GK420]	7–11

Same assay, conditions: individual technical replicate; read-out: cPLA2 % inhibition at 0.091 mole fraction

Structure (SMILES)	inhibition at 0.091 mole fraction [%]
CCCCCCOc1ccc(SCC(=O)c2nc(C(=O)OC)cs2)cc1 [GK419]	54
CCCCCCCOc1ccc(OCC(=O)c2nc(C(=O)OC)cs2)cc1 [GK420]	97.2
